# Tests used:
# Format in all cases: cell-based
# [1] = tested on: Streptococcus mutans (SM); experiment: Planktonic growth, OD 595 nm after 24 h
# Experimental: (§1) MBSFL oil (converted, 225, BioBee Sde Eliyahu Ltd, lot 0095-0098.181210-181227) was compared to BSFL oil (before conversion, 215, BioBee Sde Eliyahu Ltd, lot 0030.111217), lauric acid 98% (Sigma-Aldrich, denoted LA) and chlorhexidine acetate (Steinberg, denoted CHX), were analyzed as antimicrobial and anti-biofilm-formation agents in vitro, with respect to Pseudomonas aeruginosa (Gram negative, denoted PA01), Staphylococcus aureus (ATCC, American Type Culture Collection) (Gram positive, denoted SA), Streptococcus mutans (ATCC) (Gram positive, denoted SM), Lactobacillus (ATCC) (Gram positive, denoted L), Candida albicans (ATCC) (yeast, denoted CA) and Candida glabrata (ATCC) (yeast, denoted CG).
# (§2) Microbial stocks of the Biofilm Research Laboratory were grown from frozen stock: SM at overnight 37° C. in BHI (brain heart infusion) broth medium in an atmosphere of 5% CO2; L at 37° C. in MRS (de Man, Rogosa and Sharpe) broth medium in an atmosphere of 5% CO2; PAO1 and SA at 37° C. in TSB (Trypticase soy broth) medium; CA and CG at 37° C. in RPMI (Roswell Park Memorial Institute) medium.
# (§3) BSFL oil and MBSFL oil were prepared in DDW by heating at 100° C. LA was prepared at 50% Ethanol/50% DDW (doubly distillated water) and heated constantly to prevent solidifying in the tube. Maximum concentration of tested agents was the same (2.7% of lauric acid content). CHX was prepared in DDW
# (§4) To examine the effects of MBSFL oil on microorganism's growth (planktonic conditions), serial 1:2 dilutions of each tested agent in appropriate medium (BSFL, MBSFL and LA from 2.7 to 0.04%; CHX from 20 μg/ml to 0.3 μg/ml) were prepared in a polystyrene flat-bottomed 96-well microplate. Wells with no compounds and those with bacteria served as positive controls. Wells with no bacteria and with compound served as blanks. An equal volume (100 μl) of the each tested bacterial and fungal suspension at optical density (OD)595=0.02 and 0.05, respectively, was added to each well. After a 24 h incubation, growth was monitored by recording the OD at 595 nm using a Genius plate reader Spectrophotometer (Tecan). The assay was performed in triplicates.
# [2] = tested on: Pseudomonas aeruginosa (PAO1); experiment: Planktonic growth, OD 595 nm after 24 h
# Experimental: as §1, §2, §3, §4
# [3] = tested on: Staphylococcus aureus (SA); experiment: Planktonic growth, OD 595 nm after 24 h
# Experimental: as §1, §2, §3, §4
# Lactobacillus (L) [4] = experiment: Planktonic growth, OD 595 nm after 24 h
# Experimental: as §1, §2, §3, §4
# Candida albicans (CA) [5] = experiment: Planktonic growth, OD 595 nm after 24 h
# Experimental: as §1, §2, §3, §4
# Candida glabrata (CG) [6] = experiment: Planktonic growth, OD 595 nm after 24 h
# Experimental: as §1, §2, §3, §4
# [7] = tested on: Streptococcus mutans (SM); experiment: Viability on agar plates (MBC)
# Experimental: as §1, §2, §3
# (§5) To examine the effects of MBSFL oil on microorganism's viability, equal amounts (5 μl) of bacterial suspension exposed to each tested concentration of agent was plated on agar plates. Plates were incubated overnight at 37° C. Colony growth was recorded as non-affected by agent's viable bacteria. Minimal Bactericidal Concentration (MBC) was recorded as no colony growth. Minimal Fungicidal Concentration (MFC) was recorded as no fungal growth.
# [8] = tested on: Pseudomonas aeruginosa (PAO1); experiment: Viability on agar plates (MBC)
# Experimental: as §1, §2, §3, §5
# [9] = tested on: Staphylococcus aureus (SA); experiment: Viability on agar plates (MBC)
# Experimental: as §1, §2, §3, §5
# Lactobacillus (L) [10] = experiment: Viability on agar plates (MBC)
# Experimental: as §1, §2, §3, §5
# [11] = tested on: Streptococcus mutans (SM); experiment: Biofilm formation, crystal violet staining; conditions: 24 h
# Experimental: as §1, §2, §3
# (§6) To examine the effects of MBSFL oil on biofilm formation by the microorganisms, assays for all of the tested agents were performed as described above except of growth medium used which was MRS/BHI supplemented with 1% sucrose and TSB/RPMI supplemented with 1% glucose. After incubation for 24 h, spent media and free-floating bacteria/fungi were removed by gentle aspiration and the wells were washed twice with phosphate-buffered saline (PBS, pH 7.4). The biofilm was then quantified by crystal violet staining. Briefly, 0.02% crystal violet was added into wells for 45 min, which were then washed twice with DDW to remove unbound dye. After adding 200 μl of 30% acetic acid into each well, the plate was shaken for 10 min to release the dye and the biofilm was quantified by measuring the absorbance at 595 nm using a Genius plate reader Spectrophotometer (Tecan). Assay was performed in triplicates.
# [12] = tested on: Pseudomonas aeruginosa (PAO1); experiment: Biofilm formation, crystal violet staining
# Experimental: as §1, §2, §3, §6
# [13] = tested on: Staphylococcus aureus (SA); experiment: Biofilm formation, crystal violet staining; conditions: 24 h
# Experimental: as §1, §2, §3, §6
# Candida albicans (CA) [14] = experiment: Biofilm formation, crystal violet staining; conditions: 24 h
# Experimental: as §1, §2, §3, §6
# Candida glabrata (CG) [15] = experiment: Biofilm formation, crystal violet staining
# Experimental: as §1, §2, §3, §6
# Candida albicans (CA) [16] = experiment: Viability on agar plates (MFC)
# Experimental: as §1, §2, §3, §5
# Candida glabrata (CG) [17] = experiment: Viability on agar plates (MFC)
# Experimental: as §1, §2, §3, §5
smiles,measurement,setting,value
"CC(=O)O.CC(=O)O.NC(=N\CCCCCC/N=C(N)/N=C(\N)Nc1ccc(Cl)cc1)/N=C(\N)Nc1ccc(Cl)cc1 [CHX, chlorhexidine acetate]",dose inhibiting growth of SM,[1],0.625 µg/mL
same,dose of total inhibition of PAO1 growth,[2],10 µg/mL
same,dose inhibiting growth of SA,"[3]; planktonic, 24 h",2.5 µg/mL
same,MIC,Lactobacillus (L) [4],2.5 µg/mL
same,dose inhibiting growth of CA,Candida albicans (CA) [5],5 µg/mL
same,dose inhibiting growth of CG,Candida glabrata (CG) [6],2.5 µg/mL
same,MBC,[7],0.625 µg/mL
same,MBC,[8],20 µg/mL
same,MBC,[9],10 µg/mL
same,MBC,Lactobacillus (L) [10],2.5 µg/mL
same,dose inhibiting biofilm formation,[11],0.625 µg/mL
same,dose of total inhibition of biofilm formation,"[12]; PAO1 biofilm, 24 h",10 µg/mL
same,dose inhibiting biofilm formation,[13],2.5 µg/mL
same,dose inhibiting biofilm formation,Candida albicans (CA) [14],5 µg/mL
same,dose inhibiting biofilm formation,Candida glabrata (CG) [15]; 24 h,2.5 µg/mL
same,MFC,Candida albicans (CA) [16],5 µg/mL
same,MFC,Candida glabrata (CG) [17],2.5 µg/mL
"CCCCCCCCCCCC(=O)O [LA, lauric acid]",MIC,[1],0.33%
same,reduction of SA growth,[3]; lowest tested dose of 0.04%,90%
same,MIC,Lactobacillus (L) [4],0.33%
same,MIC,Candida albicans (CA) [5],1.35%
same,MIC,Candida glabrata (CG) [6],2.7%
same,MBC,[7],0.33%
same,Minimal Bactericidal Concentration (MBC),[8],"exerted MBC/MFC for all tested microbes, except PAO1"
same,MBC,[9],0.67%
same,MBC,Lactobacillus (L) [10],0.67%
same,dose of total inhibition of biofilm formation,[11],0.16%
same,effect on biofilm formation (in words),[12]; all concentrations tested,dose-dependently increased biomass
same,dose at which biofilm formation was totally or almost totally inhibited,[13],0.67%
same,dose at which biofilm formation was almost totally inhibited,Candida albicans (CA) [14],0.67%
same,effect on biofilm formation (in words),Candida glabrata (CG) [15],effective against biofilm formation of CG but with less impact
same,Minimal Fungicidal Concentration (MFC),Candida albicans (CA) [16],2.7%
same,MFC,Candida glabrata (CG) [17],2.7%
